From patent publication US5863550A, “Cholestasis ameliorant” (Tokyo Tanabe Company Limited, priority 1993, dated 1999)
Entries after “also recorded” stand apart in the source; their conditions may differ.

Key:
intrahepatic cholestasis = settings: cited from earlier work
[1] = in words, background; cited from earlier work
[2] = tested on: bile flow reduction induced by estradiol-17β-D-glucuronide (E-17-G); assay: Ameliorative effect against cholestasis in rats (E-17-G-induced reduction of bile flow); format: in vivo, female SD rats
Experimental: An extra external-biliary fistula was developed in female SD rats under anesthesia and, after bile collection for 30 minutes, estradiol-17β-D-glucuronide (E-17-G) was administered via their femoral veins as a single dose of 10 μ mole/kg. Immediately after the administration, tauroursodeoxycholic acid was continuously administered over two hours via the femoral veins at a rate of 0.6 μ mole/min/100 g body weight, and the bile flow was measured serially.

[3] = Acute toxicity (LD50), intravenous, rats; parameters: species or system 6-week old CD rats; settings: rat, in vivo
Experimental: (§1) The acute toxicity (LD50) of intravenously administered tauroursodeoxycholic acid was evaluated in 6-week old male and female CD rats and 8 to 11-month old male and female beagle dogs. The LD50 was 600 to 800 mg/kg in male rats and 800 to 1000 mg/kg in female rats.

[4] = Acute toxicity (LD50), intravenous, beagle dogs; parameters: species or system 8 to 11-month old beagle dogs; settings: dog, in vivo, both sexes
Experimental: as §1

Solubility in water = format: physicochemical; settings: in words
[5] = tested on: patients with cholestasis; assay: Clinical results of tauroursodeoxycholic acid injection (patients with cholestasis / jaundice); format: in vivo, human (patients)
Experimental: Since tylosis of the gallbladder walls was observed by abdominal ultrasonic imaging and there were severe icteric symptoms, this case was diagnosed as cholestasis due to drug-induced hepatopathy.
At a stage when moderate jaundice still remained (total bilirubin: 6.9 mg/dl) and no improvement had been noted in subjective symptoms such as skin itching and epigastric discomfort, tauroursodeoxycholic acid was intravenously injected once a day at a dose of 100 mg for 14 days. As a result, the total bilirubin level, GOT and GPT were decreased to 2.1 mg/dl, 45 U/l and 36 U/l, respectively, and the icteric symptoms as well as the subjective symptoms such as skin itching and epigastric discomfort were disappeared.
[…] After the patient came back to Japan on April 5 and was hospitalized, tauroursodeoxycholic acid was intravenously administered once a day at a dose of 100 mg for 14 days.
At a stage when moderate jaundice was observed (total bilirubin: 9.0 mg/dl, GOT: 838 U/l, GPT 451 U/l), tauroursodeoxycholic acid was administered once a day at a dose of 300 mg by intravenous drip infusion for 14 days.
This patient was diagnosed to suffer from cholestasis due to acute viral hepatitis based on results of immuno-serological test including GOT of 11600 U/l, GPT of 6300 U/l and total bilirubin level of 7.7 mg/dl and HBV positive result of virological test as well as severe icteric symptoms.
At a stage when jaundice was still severe (total bilirubin: 16.19 mg/dl), tauroursodeoxycholic acid was administered once a day at a dose of 300 mg by intravenous drip infusion for 14 days. As a result, the total bilirubin level, GOT and GPT were decreased to 4.4 mg/dl, 48 U/l and 36 U/l, respectively, icteric symptoms were improved from the day after one week of the administration and subjective symptoms such as skin itching and systemic malaise were disappeared by the 10th day of the administration.
This patient began to feel general malaise in late June 1993 and, since jaundice appeared on Jun. 28, they visited a neighboring clinic and received treatment. In spite of that, jaundice was not improved and they referred to our medical institution on July 5. Based on the results of inspections, the patient was diagnosed to suffer cholestasis due to acute viral hepatitis (type B).
Tauroursodeoxycholic acid was administered by intravenous injection once a day at a dose of 600 mg for 18 days from July 8.
This patient noticed jaundice in the middle of May 1993 and consulted a doctor. Their symptom was diagnosed as obstructive jaundice based on images of enlargement of the bilateral intrahepatic bile ducts and 3-4 cm long irregular stenosis in the choledoch observed in endoscopic retrograde cholangiopancreatography (ERCP) and underwent endoscopic […] bile duct drainage (ENBD) on May 31.
Because icteric symptoms were not improved, tauroursodeoxycholic acid was intravenously injected once a day at a dose of 100 mg for 22 days.
This patient was diagnosed to suffer from pancreatic cancer by ERCP. […] Concurrently, icteric symptoms and skin itching were continued. Therefore, tauroursodeoxycholic acid was intravenously injected once a day at a dose of 600 mg for 38 days. As a result, the total bilirubin level was decreased to 3.3 mg/dl, the bile flow was increased from the preadministration level of 230 ml/day to 440 ml/day, and icteric symptoms and skin itching were improved.

[6] = tested on: hepatic injury induced by α-naphthylisothiocyanate (ANIT); assay: Protective effect against hepatic injury in mice (ANIT); format: in vivo, male ICR mice
Experimental: Tauroursodeoxycholic acid was administered to male ICR mice via their caudal veins at a dose within a range of 100 to 1200μ mole/kg two hours before and two hours after an administration of α-naphthylisothiocyanate (ANIT) as a single dose of 80 mg/kg. Serum bilirubin concentration, total bile acid concentration and LDH activity were measured two days after the ANIT administration.

[7] = Example 2 patient, 100 mg i.v. once a day for 14 days, from the day after three days of the administration
[8] = Example 5 patient, 600 mg i.v. once a day for 18 days
[9] = Example 6 patient, obstructive jaundice, ENBD, 100 mg i.v. once a day for 22 days, after one week
[10] = 100 to 1200 μ mole/kg via caudal veins two hours before and two hours after ANIT 80 mg/kg, two days after ANIT

In the case of `C[C@H](CCC(=O)O)[C@H]1CC[C@H]2[C@@H]3[C@@H](O)C[C@@H]4C[C@H](O)CC[C@]4(C)[C@H]3CC[C@]12C` [ursodeoxycholic acid], the “efficacy against intrahepatic cholestasis” value (intrahepatic cholestasis; ursodeoxycholic acid preparations, recently reported in Japan and other countries) is given as “very high efficacy” and the solubility [1] is given as “very low”.

For `CCC1(c2ccccc2)C(=O)NC(=O)NC1=O` [phenobarbital], the “efficacy in the treatment of intrahepatic cholestasis” value (intrahepatic cholestasis; steroid and phenobarbital preparations currently used) is listed as “a certain level of, but often insufficient, efficacy”.

With `C[C@H](CCC(=O)NCCS(=O)(=O)O)[C@H]1CC[C@H]2[C@@H]3[C@@H](O)C[C@@H]4C[C@H](O)CC[C@]4(C)[C@H]3CC[C@]12C` [tauroursodeoxycholic acid] the “infusion rate at or above which the reduction of the bile flow induced by E-17-G was inhibited” value ([2]; female SD rats, E-17-G 10 μ mole/kg i.v., continuous infusion over two hours via femoral veins) was ≥ 0.3 μ mole/min/100 g body weight, the “inhibition of the reduction of bile flow compared with free ursodeoxycholic acid” value ([2]; female SD rats, E-17-G 10 μ mole/kg i.v., comparator free ursodeoxycholic acid) was “more marked than that of free ursodeoxycholic acid” and the cholagogue effect ([2]; general conclusion) was “exerts cholagogue effect”. For the same compound, the LD50 ([3]; female rats) was 800 to 1000 mg/kg, the LD50 ([3]; male rats) was 600 to 800 mg/kg and the LD50 [4] was 300 to 600 mg/kg. For the same compound, the solubility in water (Solubility in water) was “better solubility in water as compared with ursodeoxycholic acid; also recorded: high solubility in water; also recorded: excellent solubility in water”, the total bilirubin level ([5]; Example 1 patient, drug-induced hepatopathy, 100 mg i.v. once a day for 14 days, before: 6.9 mg/dl) was 2.1 mg/dL and the GOT ([5]; Example 1 patient, drug-induced hepatopathy, 100 mg i.v. once a day for 14 days, peak before: 548 U/l) was 45 U/l. The GPT ([5]; Example 1 patient, drug-induced hepatopathy, 100 mg i.v. once a day for 14 days, peak before: 664 U/l) was 36 U/l, the “icteric symptoms and subjective symptoms such as skin itching and epigastric discomfort” value ([5]; Example 1 patient, 100 mg i.v. once a day for 14 days) was “disappeared” and the “total bile acid level” value ([5]; Example 2 patient, acute viral hepatitis, 100 mg i.v. once a day for 14 days, before: 21 μmole/l) was 12 µmol/L. The total bilirubin level ([5]; Example 2 patient, acute viral hepatitis, 100 mg i.v. once a day for 14 days, before: 31.4 mg/dl) was 13.7 mg/dL, the icteric symptoms [5, 7] was “improvement of icteric symptoms” and the “subjective symptoms such as skin itching and anorexia” value [5, 7] was “disappeared”. The total bilirubin level ([5]; Example 3 patient, drug-induced hepatopathy, 300 mg once a day i.v. drip infusion for 14 days, before: 9.0 mg/dl) was 2.8 mg/dL, the “icteric symptoms due to cholestasis” value ([5]; Example 3 patient, 300 mg once a day i.v. drip infusion for 14 days) was “improvement in icteric symptoms” and the GPT ([5]; Example 3 patient, 300 mg once a day i.v. drip infusion for 14 days, before: 451 U/l) was 145 U/l. The GOT ([5]; Example 3 patient, 300 mg once a day i.v. drip infusion for 14 days, before: 838 U/l) was 171 U/l, the “total bilirubin level, GOT and GPT after completion of administration” value ([5]; Example 3 patient, two weeks after the completion of 300 mg once a day i.v. drip infusion for 14 days) was “no increase was observed” and the total bilirubin level ([5]; Example 4 patient, acute viral hepatitis (HBV positive), 300 mg once a day i.v. drip infusion for 14 days, before: 16.19 mg/dl) was 4.4 mg/dL. The GPT ([5]; Example 4 patient, 300 mg once a day i.v. drip infusion for 14 days, at diagnosis: 6300 U/l) was 36 U/l, the GOT ([5]; Example 4 patient, 300 mg once a day i.v. drip infusion for 14 days, at diagnosis: 11600 U/l) was 48 U/l and the “subjective symptoms such as skin itching and systemic malaise” value ([5]; Example 4 patient, 300 mg once a day i.v. drip infusion, by the 10th day of the administration) was “disappeared”. The icteric symptoms ([5]; Example 4 patient, 300 mg once a day i.v. drip infusion, from the day after one week of the administration) was “improved”, the total bilirubin level ([5]; Example 5 patient, acute viral hepatitis (type B), 600 mg i.v. once a day, after 4 days) was “reduced by half” and the total bilirubin level ([5]; Example 5 patient, acute viral hepatitis (type B), 600 mg i.v. once a day, after one week) was “almost within the normal range”. For the same compound, the “icteric symptoms and general malaise” value [5, 8] was “disappeared”, the “other parameters related to the liver function” value [5, 8] was “improved” and the “jaundice and skin itching” value ([5]; Example 6 patient, obstructive jaundice, ENBD, 100 mg i.v. once a day for 22 days) was “improvement of jaundice and skin itching”. The bile flow [5, 9] was “apparent increase of bile flow”, the total bilirubin level [5, 9] was “decrease of the total bilirubin level” and the “icteric symptoms and skin itching” value ([5]; Example 7 patient, pancreatic cancer, PTCD, 600 mg i.v. once a day for 38 days) was “improved”. The total bilirubin level ([5]; Example 7 patient, pancreatic cancer, PTCD, 600 mg i.v. once a day for 38 days, before: around 15 mg/dl) was 3.3 mg/dL, the bile flow ([5]; Example 7 patient, pancreatic cancer, PTCD, 600 mg i.v. once a day for 38 days, preadministration 230 ml/day) was 440 mL/day and the “ameliorative effect against cholestasis” value ([5]; general finding, patients with liver diseases) was “ameliorative effect against cholestasis”. The “increase of LDH activity induced by ANIT” value [6, 10] was “inhibited”, the “increase of serum bilirubin concentration induced by ANIT” value [6, 10] was “inhibited” and the “increase of total bile acid concentration induced by ANIT” value [6, 10] was “inhibited”. The “protective effect of hepatocyte” value ([6]; general conclusion) was “protective effect of hepatocyte”.
